Data reported in ChEMBL document CHEMBL2216747, “Effect of daurisoline on HERG channel electrophysiological function and protein expression” (J Nat Prod, 2012).

Legend:
HEK293 [1] = assay: Downregulation of human ERG expression in HEK293 cells assessed as change in intensity of 155 kDa band at 1 to 10 uM after 24 hrs by Western blot analysis; type: ADME, cell-based; conditions: hek293, 24 h
HEK293 [2] = assay: Downregulation of human ERG mRNA expression in HEK293 cells at 30 uM after 24 hrs by qRT-PCR analysis; type: ADME, cell-based; conditions: hek293, 24 h
[3] = Inhibition of Ikr tail current in rabbit ventricular myocytes; type: cell-based; conditions: Oryctolagus cuniculus, Ventricular myocyte
HEK293 [4] = assay: Reduction in human ERG-tail density expressed in HEK293 cells at 30 uM after 24 hrs by densitometric analysis; type: ADME, cell-based; conditions: hek293, 24 h
IKs (KCNE1) = IKs (KCNE1) (Cavia porcellus, UniProt Q60409); assay: Inhibition of Iks tail current in guinea pig ventricular myocytes at 100 uM; type: cell-based, Ventricular myocyte
[5] = Cmax in dog at 30 uM, iv administered as bolus dose; type: ADME, organism-based, Canis lupus familiaris; design: dose 30 uM, route intravenous; conditions: in vivo
IKr = assay: Inhibition of Ikr tail current in guinea pig ventricular myocytes at 10 uM; type: cell-based, Cavia porcellus, Ventricular myocyte
[6] = target: Potassium voltage-gated channel subfamily E member 1 (Oryctolagus cuniculus, UniProt Q28705); assay: Inhibition of Iks tail current in rabbit ventricular myocytes; type: cell-based, Ventricular myocyte
HEK293 [7] = assay: Downregulation of human ERG expression in HEK293 cells assessed as decrease in intensity of 135 kDa band at 30 uM after 24 hrs by Western blot analysis; type: ADME, cell-based; conditions: hek293, 24 h
HEK293 [8] = assay: Downregulation of human ERG expression in HEK293 cells assessed as decrease in intensity of 155 kDa band at 30 uM after 24 hrs by Western blot analysis; type: ADME, cell-based; conditions: hek293, 24 h
HEK293 [9] = assay: Downregulation of human ERG expression in HEK293 cells assessed as change in intensity of 135 kDa band at 1 to 10 uM after 24 hrs by Western blot analysis; type: ADME, cell-based; conditions: hek293, 24 h
HEK293 [10] = assay: Downregulation of human ERG mRNA expression in HEK293 cells at 30 uM after 24 hrs by RT-PCR analysis; type: ADME, cell-based; conditions: hek293, 24 h
[11] = Cmax in rabbit at 30 uM, iv administered as bolus dose; type: ADME, organism-based, Oryctolagus cuniculus; design: dose 30 uM, route intravenous; conditions: in vivo

Potassium voltage-gated channel subfamily E member 1, sequence (Q28705 whole entry): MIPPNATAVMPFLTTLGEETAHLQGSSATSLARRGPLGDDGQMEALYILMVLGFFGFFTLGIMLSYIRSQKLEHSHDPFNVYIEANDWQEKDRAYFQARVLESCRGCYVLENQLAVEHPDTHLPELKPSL
IKs (KCNE1), sequence (Q60409 whole entry): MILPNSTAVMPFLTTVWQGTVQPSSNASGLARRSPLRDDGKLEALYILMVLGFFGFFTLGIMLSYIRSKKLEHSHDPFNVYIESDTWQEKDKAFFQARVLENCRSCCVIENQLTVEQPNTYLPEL

- inhibition at 100 µM (IKs (KCNE1)): 50%
- Cmax at 30 µM [5]: 1700 nM
- IC50 [6]: 52.5 µM
- Cmax at 30 µM [11]: 1700 nM
Compound: COc1cc2c(cc1O)[C@@H](Cc1ccc(O)c(Oc3ccc(C[C@@H]4c5cc(OC)c(OC)cc5CCN4C)cc3)c1)N(C)CC2 [DARUISOLINE]
- Activity (HEK293 [1]): Non-toxic
- Activity (HEK293 [2]): Toxic
- IC50 [3]: 19.9 µM
- Activity (HEK293 [4]): Toxic
- inhibition at 10 µM (IKr): 39%
- Activity (HEK293 [7]): Toxic
- Activity (HEK293 [8]): Toxic
- Activity (HEK293 [9]): Non-toxic
- Activity (HEK293 [10]): Toxic
